Reference: US9169219B2, “Herbicidally active 4-nitro-substituted N-(tetrazol-5-yl)-, N-(triazol-5-yl)-, and N-(1,3,4-0XADIAZOL-2-yl)aryl carboxylic acid amides” (BAYER INTELLECTUAL PROPERTY GMBH, priority 2012, dated 2015)

How the values were obtained:
Format in all cases: in vivo
Abutilon theophrasti = experiment: Post-emergence herbicidal action against weed plants; conditions: 504 h, one-leaf stage, visual assessment after about 3 weeks vs untreated controls (100% = plants have died)
Description: (§1) 2. Post-emergence Herbicidal Action Against Weed Plants Seeds of monocotyledonous and dicotyledonous weed and crop plants are placed in sandy loam in wood-fiber pots, covered with soil and cultivated in a greenhouse under good growth conditions. 2 to 3 weeks after sowing, the test plants are treated at the one-leaf stage. The inventive compounds formulated in the form of wettable powders (WP) or as emulsion concentrates (EC) are then sprayed onto the green parts of the plants as an aqueous suspension or emulsion at a water application rate of 600 to 800 I/ha (converted) with addition of 0.2% wetting agent. After the test plants have been left to stand in the greenhouse under optimal growth conditions for about 3 weeks, the action of the formulations is assessed visually in comparison to untreated controls (herbicidal action in percent (%): 100% activity=the plants have died, 0% activity=like control plants).

Stellaria media = experiment: as above; conditions: 504 h, one-leaf stage, visual assessment after about 3 weeks vs untreated controls (100% = plants have died)
Description: as §1

maize = experiment: Pre-emergence test, damage to crop plants; conditions: 320 g/ha, visual assessment after 3 weeks

Structure (SMILES)	pest or weed control at 80 g/ha (Abutilon theophrasti)	pest or weed control at 80 g/ha (Stellaria media)	damage in maize (maize)
COc1c([N+](=O)[O-])ccc(C(=O)Nc2nnnn2C)c1Br [1-1, 2-bromo-3-methoxy-N-(1-methyl-1H-tetrazol-5-yl)-4-nitrobenzamide]	≥ 80%	≥ 80%	
CCOCCOc1c([N+](=O)[O-])ccc(C(=O)Nc2nnnn2C)c1Br [1-20]			no damage whatsoever
Cn1nnnc1NC(=O)c1ccc([N+](=O)[O-])c(OCC2COCCO2)c1Br (stereo not shown) [1-34]	≥ 80%	≥ 80%	no damage whatsoever
COc1c([N+](=O)[O-])ccc(C(=O)Nc2nnnn2C)c1Cl [1-44]	≥ 80%	≥ 80%	
COCCOc1c([N+](=O)[O-])ccc(C(=O)Nc2nnnn2C)c1Cl [1-61]			no damage whatsoever
COCCCOc1c([N+](=O)[O-])ccc(C(=O)Nc2nnnn2C)c1Cl [1-62]			no damage whatsoever
Cn1nnnc1NC(=O)c1ccc([N+](=O)[O-])c(OCC2COCCO2)c1Cl (stereo not shown) [1-77]	≥ 80%	≥ 80%	no damage whatsoever
Cn1nnnc1NC(=O)c1ccc([N+](=O)[O-])c(OCC2OCCO2)c1Cl [1-78]	≥ 80%	≥ 80%	no damage whatsoever
Cc1c(C(=O)Nc2nnnn2C)ccc([N+](=O)[O-])c1OCC1COCCO1 (stereo not shown) [1-119]	≥ 80%	≥ 80%	
CCn1nnnc1NC(=O)c1ccc([N+](=O)[O-])c(OC)c1Br [2-1]	≥ 80%	≥ 80%	
CCn1nnnc1NC(=O)c1ccc([N+](=O)[O-])c(OCCCOC)c1Br [2-19]			no damage whatsoever
CCn1nnnc1NC(=O)c1ccc([N+](=O)[O-])c(OCC2COCCO2)c1Br (stereo not shown) [2-34]	≥ 80%	≥ 80%	
CCn1nnnc1NC(=O)c1ccc([N+](=O)[O-])c(OC)c1Cl [2-44]	≥ 80%	≥ 80%	
CCn1nnnc1NC(=O)c1ccc([N+](=O)[O-])c(OCCOC)c1Cl [2-61]			no damage whatsoever
CCn1nnnc1NC(=O)c1ccc([N+](=O)[O-])c(OCCCOC)c1Cl [2-62]			no damage whatsoever
CCn1nnnc1NC(=O)c1ccc([N+](=O)[O-])c(OCCOC)c1C [2-104]			no damage whatsoever
CCn1nnnc1NC(=O)c1ccc([N+](=O)[O-])c(OCC2COCCO2)c1C (stereo not shown) [2-120]	≥ 80%	≥ 80%	
CCn1nnnc1NC(=O)c1ccc([N+](=O)[O-])c(OCC(=O)N(C)C)c1C [2-123]			no damage whatsoever
